US11884652B2, “Tetrazole derivatives as TRPA1 inhibitors” (Boehringer Ingelheim International GmbH, priority 2020, dated 2024)

Assays:
[1] = target: T1, human TRPA1 ion channel (Homo sapiens, UniProt O75762); experiment: Assay A: TRPA1 assay (FLIPR, AITC-induced calcium, HEK293 cells); assay type: cell-based; conditions: read-out: hTRPA1 IC50
T1 construct: host or cells: HEK293
Experimental: A human HEK293 cell line over-expressing the human TRPA1 ion channel (Perkin Elmer, Product No. AX-004-PCL) is used as a test system for compound efficacy and potency. Compound activity is determined by measuring the effect of compounds on intracellular calcium concentration induced by AITC (Allylisothiocyanat) agonism in a FLIPRtetra system (Molecular Devices).
The cells are obtained as frozen cells in cryo-vials and stored until use at −150° C. Cells are grown in culture medium (MEM/EBSS medium with 10% FCS and 0.4 mg/ML Geneticin). […] For sub-culturing cells are detached from flasks by Versene. At the day before the assay, cells are detached, washed twice with medium (MEM/EBSS medium with 10% FCS) and 20000 cells in 20 μl/well are seeded to Poly D-Lysin biocoated 384-well plates (black, clear bottom, Cat. 356697) from Corning. Plates are incubated for 24 hours at 37° C./5% CO2 before use in the assay.
The test compounds are dissolved in 100% DMSO at a concentration of 10 mM and in a first step diluted in DMSO to a concentration of 5 mM, followed by serial dilution steps in 100% DMSO. Dilution factor and number of dilution steps may vary according to needs. Typically 8 different concentrations by 1:5 dilutions are prepared, further intermediate dilutions (1:20) of the substances are carried out with HBSS/HEPES buffer (1×HEPES, Cat. 14065 from Gibco, 20 mM HEPES, Cat. 83264 from SIGMA, 0.1% BSA Cat. 11926 from Invitrogen, pH 7.4
At the assay day cells are washed 3× with assay puffer, 20 μL buffer remaining in the wells after washing. 10 μL Ca6 kit (Cat. R8191 MolecularDevices) loading buffer in HBSS/HEPES is added to the cells and the plates are incubated with lid for 120 minutes at 37°/5% CO2. 10 μL of compound or controls in HBSS/HEPES buffer/5% DMSO from the intermediate dilution plate are carefully added to the wells. […] Finally 10 μL of the agonist AITC 50 μM dissolved in HBSS/HEPES buffer/0.05% DMSO (final concentration 10 μM) is added to the wells followed by an additional read on the FLIPRtetra device for 10 minutes. The area under the signal curve (AUC) after AITC addition is used for IC50/% inhibition calculations
Data Evaluation and Calculation:
Each assay microtiter plate contains wells with vehicle (1% DMSO) controls instead of compound as controls for AITC induced luminescence (100% CTL; high controls) and wells with vehicle controls without AITC as controls for non-specific changes in luminescence (0% CTL; low controls).
The analysis of the data is performed by the calculation of the area under signal curve of the individual wells. Based on this values the % value for the measurement of each substance concentration is calculated (AUC(sample)−AUC(low))*100/(AUC(high)−AUC(low)) using MegaLab software (in house development). The IC50 values are calculated from the % control values using MegaLab software. Calculation: [y=(ad)/(1+(x/c)^b)+d], a=low value, d=high value; x=conc M; c=IC50 M; b=hill; y=% ctrl

[2] = Assay B: Microsomal clearance; assay type: in vitro ADME, human; conditions: pooled liver microsomes 1 mg/ml, 1 μM compound, NADPH, 37° C.; clearance as % of hepatic blood flow
Experimental: Assay B: Microsomal Clearance:
The metabolic degradation of the test compound is assayed at 37° C. with pooled liver microsomes. The final incubation volume of 100 μl per time point contains TRIS buffer pH 7.6 at RT (0.1 M), magnesium chloride (5 mM), microsomal protein (1 mg/ml) and the test compound at a final concentration of 1 μM.
Following a short preincubation period at 37° C., the reactions are initiated by addition of beta-nicotinamide adenine dinucleotide phosphate, reduced form (NADPH, 1 mM) and terminated by transferring an aliquot into solvent after different time points (0, 5, 15, 30, 60 min). Additionally, the NADPH-independent degradation is monitored in incubations without NADPH, terminated at the last time point. The [%] remaining test compound after NADPH independent incubation is reflected by the parameter c(control) (metabolic stability). The quenched incubations are pelleted by centrifugation (10000 g, 5 min).
An aliquot of the supernatant is assayed by LC-MS/MS for the amount of parent compound. The half-life (t½ INVITRO) is determined by the slope of the semilogarithmic plot of the concentration-time profile.
The intrinsic clearance (CL_[…]) is calculated by considering the amount of protein in the incubation: CL_[…] [μl/min/mg protein]=(Ln 2/(half-life [min]*protein content [mg/ml]))*1000 CL_[…]_INVIVO [ml/min/kg]=(CL_[…] [μL/min/mg protein]×MPPGL [mg protein/g liver]×liver factor [g/kg bodyweight])/1000 Qh[%]=CL[ml/min/kg]/hepatic blood flow [ml/min/kg])
(§1) Hepatocellularity, human: 120×10e6 cells/g liver
(§2) Liver factor, human: 25.7 g/kg bodyweight
(§3) Blood flow, human: 21 ml/(min×kg)

[3] = Assay C: Hepatocyte clearance; assay type: in vitro ADME, human; conditions: hepatocyte suspension, 1 μM compound, 6 h; predicted clearance as % of hepatic blood flow
Experimental: Assay C: Hepatocyte Clearance
The metabolic degradation of the test compound is assayed in a hepatocyte suspension. Hepatocytes (cryopreserved) are incubated in Dulbecco's modified eagle medium (supplemented with 3.5 μg glucagon/500 mL, 2.5 mg insulin/500 mL and 3.75 mg/500 mL hydrocortison) containing 5% or 50% species serum.
The cells are incubated for six hours (incubator, orbital shaker) and samples ([…]) are taken at 0, 0.5, 1, 2, 4 and 6 hours. Samples are transferred into acetonitrile and pelleted by centrifugation (5 min). The supernatant is transferred to a new 96-deepwell plate, evaporated under nitrogen and resuspended.
Decline of Parent Compound is Analyzed by HPLC-MS/MS
CLint is calculated as follows CL_[…]=Dose/AUC=(C0/CD)/(AUD+clast/k)×1000/60. C0: initial concentration in the incubation [μM], CD: cell density of vital cells [10e6 cells/mL], AUD: area under the data [μM×h], clast: concentration of last data point [μM], k: slope of the regression line for parent decline [h−1].
The calculated in vitro hepatic intrinsic clearance can be scaled up to the intrinsic in vivo hepatic Clearance and used to predict hepatic in vivo blood clearance (CL) by the use of a liver model (well stirred model). CL_[…]_INVIVO [ml/min/kg]=(CL_[…] [μL/min/10e6 cells]×hepatocellularity [10e6 cells/g liver]×liver factor [g/kg bodyweight])/1000 CL[ml/min/kg]=CL_[…]_INVIVO [ml/min/kg]×hepatic blood flow [ml/min/kg]/(CL_[…]_INVIVO [ml/min/kg]+hepatic blood flow [ml/min/kg]) Qh[%]=CL[ml/min/kg]/hepatic blood flow [ml/min/kg])
as §1, §2, §3

T1 sequence (O75762 whole entry): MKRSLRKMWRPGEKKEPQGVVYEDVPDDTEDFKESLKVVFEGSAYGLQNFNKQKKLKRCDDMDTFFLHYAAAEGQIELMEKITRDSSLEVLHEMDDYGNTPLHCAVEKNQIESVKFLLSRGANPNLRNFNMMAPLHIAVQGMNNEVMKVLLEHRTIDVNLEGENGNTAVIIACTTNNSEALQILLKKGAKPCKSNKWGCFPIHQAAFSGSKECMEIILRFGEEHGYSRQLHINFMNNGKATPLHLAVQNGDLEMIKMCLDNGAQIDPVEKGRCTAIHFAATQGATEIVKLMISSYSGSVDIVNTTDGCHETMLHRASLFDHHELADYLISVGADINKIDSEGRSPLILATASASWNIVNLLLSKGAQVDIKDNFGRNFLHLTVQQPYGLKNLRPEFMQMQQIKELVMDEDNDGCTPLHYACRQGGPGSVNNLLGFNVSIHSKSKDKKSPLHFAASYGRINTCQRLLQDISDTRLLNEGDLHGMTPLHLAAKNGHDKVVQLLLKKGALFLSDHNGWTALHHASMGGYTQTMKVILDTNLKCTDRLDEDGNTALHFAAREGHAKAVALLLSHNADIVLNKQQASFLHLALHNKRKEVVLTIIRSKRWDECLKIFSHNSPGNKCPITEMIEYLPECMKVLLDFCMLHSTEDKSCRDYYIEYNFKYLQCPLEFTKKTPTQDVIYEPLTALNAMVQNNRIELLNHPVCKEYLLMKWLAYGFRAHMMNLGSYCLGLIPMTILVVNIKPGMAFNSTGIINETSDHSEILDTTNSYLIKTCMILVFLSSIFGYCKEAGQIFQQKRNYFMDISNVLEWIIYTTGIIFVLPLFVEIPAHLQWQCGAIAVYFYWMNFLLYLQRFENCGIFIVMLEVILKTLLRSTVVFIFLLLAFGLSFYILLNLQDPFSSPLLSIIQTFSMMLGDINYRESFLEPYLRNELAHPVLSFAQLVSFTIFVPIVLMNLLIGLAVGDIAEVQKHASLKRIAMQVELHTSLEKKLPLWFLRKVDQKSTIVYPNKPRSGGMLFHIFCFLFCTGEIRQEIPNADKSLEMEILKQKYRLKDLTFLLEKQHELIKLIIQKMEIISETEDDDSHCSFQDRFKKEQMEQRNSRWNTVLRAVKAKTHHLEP

Cn1c(=O)c(C(N)=O)cn(Cc2nnn(C[C@H](O)c3cc4ccccc4o3)n2)c1=O [Example 9]
IC50 [1]: 72 nM
human LM [% Qh] [2]: <23 % Qh
human Hepatocytes [% Qh] [3]: 7 % Qh

CNC(=O)c1cn(Cc2nnn(C[C@H](O)c3ccc(Cl)cc3)n2)c(=O)n(C)c1=O [Example 27]
IC50 [1]: 140 nM
human LM [% Qh] [2]: <23 % Qh
human Hepatocytes [% Qh] [3]: 17 % Qh

Cn1c(=O)c(C(N)=O)cn(Cc2nnn(C[C@H](O)c3ccc(Cl)cc3)n2)c1=O [Example 1, 1-({2-[(2R)-2-(4-chlorophenyl)-2-hydroxyethyl]-2H-1,2,3,4-tetrazol-5-yl}methyl)-3-methyl-2,4-dioxo-1,2,3,4-tetrahydropyrimidine-5-carboxamide]
IC50 [1]: 40 nM
human LM [% Qh] [2]: <23 % Qh
human Hepatocytes [% Qh] [3]: <4 % Qh

Cn1c(=O)c(C(N)=O)cn(Cc2nnn(C[C@H](O)c3cc4cc(Cl)ccc4o3)n2)c1=O [Example 6]
IC50 [1]: 42 nM
human LM [% Qh] [2]: <23 % Qh
human Hepatocytes [% Qh] [3]: 15 % Qh

CN1CCOCC1CNC(=O)c1cn(Cc2nnn(C[C@H](O)c3ccc(Cl)cc3)n2)c(=O)n(C)c1=O (stereo partly drawn) [Example 25]
IC50 [1]: 43 nM
human LM [% Qh] [2]: 55 % Qh
human Hepatocytes [% Qh] [3]: 42 % Qh

Cn1c(=O)c(C(=O)NCCF)cn(Cc2nnn(C[C@H](O)c3ccc(Cl)cc3)n2)c1=O [Example 33]
IC50 [1]: 116 nM
human LM [% Qh] [2]: 57 % Qh
human Hepatocytes [% Qh] [3]: 28 % Qh

Cn1ccnc1CNC(=O)c1cn(Cc2nnn(C[C@H](O)c3ccc(Cl)cc3)n2)c(=O)n(C)c1=O [Example 26]
IC50 [1]: 100 nM
human LM [% Qh] [2]: 52 % Qh
human Hepatocytes [% Qh] [3]: 21 % Qh

Cn1c(=O)c(C(N)=O)cn(Cc2nnn(C[C@H](O)c3cc4cccc(F)c4o3)n2)c1=O [Example 15]
IC50 [1]: 198 nM
human LM [% Qh] [2]: <23 % Qh
human Hepatocytes [% Qh] [3]: 14 % Qh

CCNC(=O)c1cn(Cc2nnn(C[C@H](O)c3ccc(Cl)cc3)n2)c(=O)n(C)c1=O [Example 34]
IC50 [1]: 297 nM
human LM [% Qh] [2]: 43 % Qh
human Hepatocytes [% Qh] [3]: 44 % Qh

Cn1c(=O)c(C(N)=O)cn(Cc2nnn(C[C@H](O)c3cc4ccc(F)cc4s3)n2)c1=O [Example 3]
IC50 [1]: 18 nM
human LM [% Qh] [2]: 26 % Qh
human Hepatocytes [% Qh] [3]: 27 % Qh
